From US11938200B2, “Non-nutritive sweeteners and polyols as imaging agents” (THE TRUSTEES OF THE UNIVERSITY OF PENNSYLVANIA, priority 2016, dated 2024)

Columns and labels:
mouse tumors = test: CEST MRI of tumor-bearing animals before and after sucralose injection; assay type: in vivo; details: tumor region; sucralose 100 mM intra peritoneally; at 40 minutes; vs baseline
Protocol: (§1) Different concentration of Splenda and sucralose were prepared in PBS and all the experiments were performed at 37° C. on a 9.4 T horizontal bore small animal MR scanner (Varian, Palo Alto, CA). CEST images were acquired at different saturation power and saturation lengths from frequency offset −5 to 5 ppm in step size of 0.1 ppm. Acquired CEST images were corrected for B0 and used to generate CEST contrast map using Equation [1].
(§2) [formula] where S−ve and S+ve are the B0 corrected MRI signals obtained at −1 ppm and +1 ppm respectively, and S0 is the image obtained without any saturation. CEST contrast was further corrected for B1 and mapped as false-colors onto anatomical proton image. The CEST asymmetry plots were generated by plotting the relative water signal difference at frequency offset from 0 to 4.8 ppm. • FIG. 1: Z-spectra (A), asymmetry plot (B), and CEST map (C) of CEST effect from 0.5% Splenda. […]
(§3) Imaging was performed in tumor-bearing animals at a 9.4 T horizontal bore Varian system. […] Respiration and body temperature were continuously monitored using a MRI-compatible small animal monitor system (SA Instruments, Inc., Stony Brook, NY). CEST imaging was performed using a custom-programmed, segmented radiofrequency GRE readout pulse sequence, with a frequency selective continuous wave saturation preparation pulse. […]

rat brain tumor = test: SWEETEST (CEST) MRI, sucralose injection studies in a rat brain tumor; assay type: in vivo; details: sucralose 300 mM via tail vein, 40 minute post injection, vs baseline
Protocol: as §1, §2, §3

In the case of OC[C@H]1O[C@H](O[C@]2(CCl)O[C@H](CCl)[C@@H](O)[C@@H]2O)[C@H](O)[C@@H](O)[C@H]1Cl [sucralose], the “percent change in the contrast post injection of sucralose” value (mouse tumors) is reported as “about 100%” and the “increase in SWEETEST contrast” value (rat brain tumor) is reported as roughly 80%.
